Like-named read-outs stand apart in the source and are kept apart here.
What was measured:
[1] = assay type: physicochemical; settings: for Solubility of added stearic acid in detergent solution (in words): stearic acid 10-20 mg/ml, overnight at 40° C.
Procedure: Detergents classified as ionic and non-ionic were tested, as well as carbohydrate and polyethylene glycol based non-ionic detergents.

[2] = MSDS / known values; cited from earlier work
[3] = 6.7% TRIZMA in 67% aqueous 2-propanol; (10% w/v)
Procedure: Different detergent or detergent/base stock solutions were mixed in culture tubes, vortexed for 1 minute, and allowed to completely dissolve over an additional 30 minutes. The stock solutions were either used undiluted or diluted with additional water or alcohol in predetermined ratios. Diluted solutions were again mixed by vortexing for 1 minute and then allowing the solution to sit for 30 minutes.
A representative aliphatic acid, the fatty acid stearic acid, was added to the tube in a predetermined quantity between 10 mg/ml and 20 mg/ml. […] Solutions were then cooled to room temperature (RT) and after 6 hours, they were evaluated again for evidence of precipitation.
The following experiment is similar to Experiment 1, except that addition of a non-toxic buffer and/or a short-chained alcohol was investigated to attempt to improve upon the above results. Various bases and alcohols were tested. […] A representative non-toxic base, TRIZMA® (SIGMA-ALDRICH®, St. Louis, Mo.), was first tested (also known as TRIS, and Tris(hydroxymethyl)aminomethane). […] For this test, the amount of contaminating aliphatic acid, stearic acid, added to the solution was increased to 100 mg/ml.

## CCCCCCCCCCCC[N+](C)(C)[O-] [C-12 dimethyl amine oxide, n-dodecyl-N,N-dimethylamine-N-oxide]
[1]; aqueous detergent solution
  Parts surfactant needed to dissolve stearic acid: 4 parts surfactant could dissolve 1 part stearic acid
[1]
  Solubility of added stearic acid in detergent solution (in words): Complete solubility at all concentrations of added stearic acid
[1]; listed as n-dodecyl-N,N-dimethylamine-N-oxide
  Solubility of added stearic acid in detergent solution (in words): quantitatively facilitated the solubilization
[2]
  LD50: 5000 mg/kg

## Tris(hydroxymethyl)aminomethane [TRIZMA base]
[3]
  Stearic acid completely solubilized by TRIZMA base without detergent: 100 mg/mL

— patent US8609602B2, “Cleaning solution” (priority 2010, dated 2013)
